The text below walks through data of the SangsterLogP compilation.

The nature of the first data set: method code SF-HPLC, from DOI: 10.1016/s0223-5234(98)80011-1. The settings on record: pH 7.4.
Consider `CCCc1nc(NCC)nc(N2CCCCC2)n1`, for which the logD worked out at 3.34.

In the case of `CCCCc1nc(NC2CC2)nc(N2CC3CCC(C2)O3)n1`, the logD is 3.02.

The compound `CC(C)Cc1nc(NC2CC2)nc(N2CC3CCC(C2)O3)n1` returned a logD of 3.34.

`CCCc1nc(NCC)nc(N2CCOCC2)n1`: the logD was 2.23.

As for `Cc1nc(NC2CC2)nc(N2CC3CCC(C2)O3)n1`, the logD was found to be 1.84.

For the compound `CCCCc1nc(NC2CC2)nc(N2CC(O)C2)n1`, the logD was 1.61.

As for `CCCc1nc(NC2CC2)nc(N2CCOCC2)n1`, the logD is 2.11.

Take `COC1CN(c2nc(CC3CC3)nc(NC3CC3)n2)C1`: the logD was found to be 2.37.

Regarding `C1CC(Cc2nc(NC3CC3)nc(N3CCOCC3)n2)C1`, the logD amounted to 3.14.

In the case of `OC1CN(c2nc(CC3CC3)nc(NC3CC3)n2)C1`, the logD worked out at 1.71.

Consider `OCCN(CCO)c1nc(CC2CC2)nc(NC2CC2)n1`, for which the logD was 1.82.

In turn, `CCCc1nc(NCc2ccccc2OC)nc(N2CCOCC2)n1` had a logD of 3.59.

`CCCc1nc(NCN2CCCC2=O)nc(N2CCOCC2)n1` displayed a log distribution coefficient (logD) of 1.62.

Consider `CCCc1nc(NCCC(=O)N(C)C)nc(N2CCOCC2)n1`, for which the logD came to 0.67.

Consider `O=S1(=O)CCN(c2nc(CC3CC3)nc(NC3CC3)n2)CC1`, for which the logD came out at 1.76.

For the compound `O=S1CCN(c2nc(CC3CC3)nc(NC3CC3)n2)CC1`, the logD stood at 1.56.

Compound `CCCc1nc(NC(=O)c2ccccc2)nc(N2CCOCC2)n1` came in with a logD of 2.33.

The compound `C1CC1Cc1nc(NC2CC2)nc(N2CC3CCC(C2)O3)n1` registered a logD of 3.07.

In the case of `CCCCc1nc(NC2CC2)nc(N(CCO)CCO)n1`, the logD stood at 1.76.

`CCCCc1nc(NC2CC2)nc(N2CCOCC2)n1` yielded a logD of 2.8.

Compound `C1CN(c2nc(CC3CC3)nc(NC3CC3)n2)CCO1` yielded a logD of 2.33.

Consider `CCCc1nc(N)nc(N2CCOCC2)n1`, for which the logD was determined as 1.55.

With `C1CCC(Cc2nc(NC3CC3)nc(N3CCOCC3)n2)C1`, the logD was found to be 3.6.

Experiment in a further data set: not given
Conditions: not given
`CCCc1nc(NC)nc(N2CCOCC2)n1` gave a logP of 2.02.

With `CCCc1nc(N)nc(N2CCCCC2)n1`, the logP was 2.43.

As for `CCCc1nc(NCN(C)C)nc(N2CCOCC2)n1`, the logP came to 1.94.

Compound `CCCc1nc(NCC(C)C)nc(N2CCOCC2)n1` came in with a logP of 2.65.

The compound `C=CCCNc1nc(CCC)nc(N2CCOCC2)n1` registered a logP of 2.47.

The compound `CCCCNc1nc(CCC)nc(N2CCOCC2)n1` gave a logP of 2.78.
